Measured values from patent US11260042B2, “Pharmaceutical combination for the treatment of cancer” (ABILITY PHARMACEUTICALS S.L., priority 2017, dated 2022).
pIC50: −log10 of the molar value. “Also recorded” adds a separate entry of the source.

Legend:
[1] = tested on: A549 (human lung carcinoma) cell line; experiment: Cell viability (MTT) of ABTL0812 in combination with docetaxel in lung cancer; assay type: cell-based; conditions: A549, three days, FBS 0.5%, single agent
Description: Methods: A549 cells were incubated with increasing concentrations of ABTL0812 (3-300 μM), docetaxel (0.01-100 μM), or a combination of both (subIC50, i.e., 20 μM fixed concentration of ABTL812 and 0.01-100 μM docetaxel) for three days (FBS 0.5%). […] In the denominator, (Dx)1 is for D1“alone” that inhibits a system x %, and (Dx)2 is for D2“alone” that inhibits a system x %.

[2] = tested on: A549 (human lung carcinoma) cell line with mutated KRAS; experiment: Cell viability (MTT) of ABTL0812 in combination with paclitaxel, A549; assay type: cell-based; conditions: A549, 72 hours, 0.1% FBS, single agent
Description: (§1) Methods: A549 cells were incubated with increasing concentrations of ABTL0812 (3-300 μM), paclitaxel (0.003-1 μM), or a combination of both using subIC50 fixed concentration of ABTL0812 and 0.003-1 μM paclitaxel for 72 hours in DMEM with 0.1% FBS. H157, H1957 and HTB-812 cells were incubated with increasing concentrations of paclitaxel (0.001-10 μM) alone and in combination with subIC50 fixed concentration of ABTL0812 for 48 hours in DMEM with 0.1% FBS. Cell viability was evaluated in all cases by MTT assay and IC50's were calculated for paclitaxel and the combination. The concentrations of the combinations for the different cell lines were:
(§2) Finally, the Combination Index (CI), as described in the previous section, was calculated for the values of paclitaxel IC50.

H1957 cells = experiment: Cell viability (MTT) of ABTL0812 in combination with paclitaxel, H1957; assay type: cell-based, human; conditions: H1957, 48 hours, 0.1% FBS, single agent
Description: as §1, §2

[3] = tested on: MiaPaca2 (human pancreatic carcinoma); experiment: Cell viability (MTT) of ABTL0812 alone or with gemcitabine in pancreatic cancer; assay type: cell-based
Description: Methods: MiaPaca2 cells were seeded in 24-well plates together with gemcitabine (0.01-100 μM), ABTL812 (3-300 μM), or a combination of both (subIC50, i.e., 25 μM fixed concentration of ABTL0812 with 0.01-100 μM gemcitabine) and left in the incubator for 72h (0.5% FBS). Cell viability was studied by the MTT assay and several parameters were determined to evaluate a possible synergism. First the IC50 for each drug alone or the combination was calculated. Then, synergism (CI) was calculated as described above.

[4] = tested on: SH-SY5Y human neuroblastoma xenograft; assay type: in vivo, Nu/nu female mice
Description: Methods: Immunodeficient athymic NMRI-Foxn1^nu/Foxn1^nu nude mice were subcutaneously injected with SH-SY5Y cells. This cell line was genetically modified to express luciferase, which would allow the in vivo study not only of tumor size, but also of metastasis formation. When tumors reached an average volume of 80 mm^3, mice were randomly distributed into different treatment groups. ABTL0812 was administered orally at 120 mg/kg daily. In parallel we used cisplatin, a drug included in the chemotherapy induction phase for the treatment of neuroblastoma. Cisplatin was administered at 2 mg/kg i.p. twice a week (Wang et al. 2010). Additionally, we studied the effect of combining ABTL0812 with cisplatin at the indicated doses.
C. Metastasis formation. In order to investigate the effect of ABTL0812 in metastasis formation we used a SH-SY5Y cell line transduced with a luciferase reporter vector. As described above, mice bearing xenograft tumors derived from this cell line were treated with ABTL0812, cisplatin or the combination of both drugs. After ten days of treatment animals were sacrificed and metastasis were assessed ex vivo by monitoring luciferase-expressing cells in lung and liver.

[5] = tested on: human endometrial cancer patient derived xenograft; experiment: Patient-derived xenograft (PDX) endometrial model, paclitaxel and carboplatin
Description: After tumors grew up to 100 mm^3, tumors were extracted from mice, minced in 2 mm long pieces and re-implanted in one flank of 40 mice. When average tumor volume reached 100 mm^3, mice were randomly distributed into treatment groups, and dosed as follows: vehicle (n=11); ABTL0812: 120 mg/kg orally, 5 times per week (n=10); paclitaxel/carboplatin (P/C): P:50 mg/kg/C:15 mg/kg intraperitoneal (n=12); and ABTL0812+P/C: ABTL0812 (n=10) was administered always two days prior to the first P/C administration and two days after, maintaining 4 doses of ABTL0812 and one of P/C per week; doses were the same as when given separately.
The effectiveness of the therapy was measured by the impact of the treatment on the tumor growth, which was measured by its volume. The health state of the animals and the drug-induced toxicity were determined by the animal body weight during the study. Tumor size evolution and tumor weight were evaluated by two-way ANOVA (day by day analysis).
In order to simulate the Phase II clinical trial design, where ABTL0812 will be administered chronically after P/C cycles, P/C treatment was removed from P/C and ABTL0812+P/C groups, maintaining ABTL0812 chronically. Tumor volume was measure after P/C treatment removal during an extra 17 days.

Structure (SMILES): CCCCC/C=C\C/C=C\CCCCCCC(O)C(=O)O (stereo not drawn) [ABTL0812, COOH—CHOH—(CH2)6—(CH═CH—CH2)2—(CH2)3—CH3]
- pIC50 [1]: 4.38
- pIC50 [2]: 4.31
- pIC50 (H1957 cells): 4.37
- cytotoxicity alone at the concentration chosen for the combination ([3]; MiaPaca2, 25 μM ABTL0812): < 10%
- pIC50 ([3]; MiaPaca2, 72h, 0.5% FBS, MTT, single agent): 4.31
- tumor progression (size, weight) ([4]; ABTL0812 120 mg/kg oral daily, cisplatin 2 mg/kg i.p. twice a week): inhibits tumor progression with an efficacy that is similar to cisplatin
- Hematocrit ([4]; mouse, in vivo): 40.2 ± 1.4%
- RBC ([4]; mouse, in vivo): 7.9 ± 0.4 ×10^6/μL
- WBC ([4]; mouse, in vivo): 3.9 ± 1.3 ×10^3/μL
- hematological safety ([4]; mouse, in vivo): no impact on blood hematocrit
- loss of body weight (transient) ([4]; mouse, in vivo): < 10%
- metastasis formation in lung and liver ([4]; ten days of treatment, luciferase-expressing cells ex vivo): inhibited metastasis formation
- tumor growth after P/C removal ([5]; after day 47, P/C stopped, ABTL0812 maintained chronically, extra 17 days): tumor growth inhibition very similar to P/C
- tumor growth (volume) ([5]; first 47 days, ABTL0812 120 mg/kg orally, P 50 mg/kg / C 15 mg/kg i.p.): same efficacy as P/C
- total body weight, toxicity ([5]; mouse, in vivo): without any signs of relevant toxicity; also recorded: Body weight reduction was observed partially only in ABTL0812 group at day 15
